The text below walks through data of patent US5652220A, “Encapsulation of TRH or its analog” (Takeda Chemical Industries, Ltd., priority 1986, dated 1997).

The nature of data set [1]: in vitro dissolution test: residual drug in microcapsules standing in phosphate buffer (pH 7.0) at 37° C. It is filed as physicochemical. As for the experimental part:
(§1) The microcapsules obtained by charging TRH in an amount of 1-20% based on PLGA and following the above procedure were tested for drug trapping percentage (percentage of amount actually incorporated into microcapsules to amount charged) and further assayed, in an in vitro dissolution test, for residual TRH in microcapsules after one day of standing in phoshpate buffer (pH 7.0) at 37° C.
(b) 1/30M phosphate buffer (pH 7.0), 37° C. (mean for n = 2).
The microcapsules obtained by the procedure of Example 1 were examined for in vitro drug release property and for in vivo drug release property after subcutaneous administration to rats (the residual drug amount in microcapsules at the site of administration was determined).
(§2) For these microcapsules, the percentage of trapping of CG-3509 was determined and the residual CG-3509 in the microcapsules after one-day standing in phosphate buffer (pH 7.0) at 37° C. was assayed in an in vitro dissolution test.

The nature of data set [2]: drug trapping percentage into microcapsules (amount actually incorporated vs amount charged). It is filed as physicochemical. The note with it: comparison microcapsules, 53 mg TRH, w/o emulsion viscosity about 2,000 cp. The procedure: as §1, §2

Consider `NC(=O)[C@@H]1CCCN1C(=O)[C@H](Cc1cnc[nH]1)NC(=O)[C@@H]1CCC(=O)N1` [TRH, pyroGlu-His-ProNH2], for which the first day release in data set [1] (Example 2, TRH 2% relative to PLGA, free form or strong acid added) is 15.8%. The initial release in data set [1] (Example 2, acetic acid added, TRH 2% relative to PLGA) was 33.2%; in data set [1] (acetic acid added, TRH 5% relative to PLGA), 22.6%; in data set [1] (comparison microcapsules, TRH to PLGA 0.88%) it was 67%; in data set [1] (comparison microcapsules, TRH to PLGA 1.33%), 71%. For the same compound, the “release of the first day” value in data set [1] (TRH concentration relative to PLGA 1%) worked out at 65.7%. Further, the trapping percentage in data set [2] (4 g PLGA, TRH to PLGA 1.33%) came out at 77%; in data set [2] (6 g PLGA, TRH to PLGA 0.88%), 98%.
